{"source": "patent US12662473B2", "about": "“Inhibitors for programmed cell necrosis and preparation method therefor and use thereof” (SHANGHAI INSTITUTE OF ORGANIC CHEMISTRY, CHINESE ACADEMY OF …, priority 2019, dated 2026)", "key": {"RIPK1 (S161A)": {"tested_on": "RIPK1 (S161A)", "assay": "Effect of RIPK1 S161A mutation on compound activity (293T overexpression; S161A MEFs cell death with TNFα and 5z7)", "assay_type": "cell-based, murine", "conditions": "FIG. 5", "source_text": "The biological test protocol used in this experiment was to test the effect of mutation of serine at position 161 of RIPK1 to alanine on the activity of compound QY-1-98. The experiment was verified by two aspects. On the one hand, after RIPK1 was overexpressed in 293T cells, RIPK1 would be activated by autophosphorylation, and the activity of small molecules to inhibit the phosphorylation of RIPK1 was detected at this time. On the other hand, in murine-derived MEFs cells with RIPK1 knockout, and RIPK1 (S161A) put back, RIPK1-dependent cell apoptosis can be induced by using TNFα and 5z7 (TAK1 inhibitor), and the effect of the compound to inhibit cell death was detected at this time.\n1. 293T cells overexpressing RIPK1 experiment: RIPK1 plasmid with N-terminal 3×FLAG was constructed on PcDNA vector. 293T cells were digested, and then diluted to 8×10^5/ml. 1 ml of cells were added to each well of a 12-well cell culture plate, and the plate was placed in a cell culture incubator (37° C., 5% CO2) for 12 hours before transfection. […] After cooling, the samples were detected by western-blot after electrophoresis on SDS-PAGE gel (9%). […] The plate was placed in cell incubator (37° C., 5% CO2) for 14 h, 15 μl of Cell Titer-Glo solution was added to each well, the mixture was incubated at room temperature for 30 min, and the luminescence value was detected to measure the level of intracellular ATP. […]"}, "RIPK1(1-330) protein": {"biological_target": "T1, RIPK1(1-330) protein (Homo sapiens, UniProt Q13546)", "T1 sequence (Q13546 1-330)": "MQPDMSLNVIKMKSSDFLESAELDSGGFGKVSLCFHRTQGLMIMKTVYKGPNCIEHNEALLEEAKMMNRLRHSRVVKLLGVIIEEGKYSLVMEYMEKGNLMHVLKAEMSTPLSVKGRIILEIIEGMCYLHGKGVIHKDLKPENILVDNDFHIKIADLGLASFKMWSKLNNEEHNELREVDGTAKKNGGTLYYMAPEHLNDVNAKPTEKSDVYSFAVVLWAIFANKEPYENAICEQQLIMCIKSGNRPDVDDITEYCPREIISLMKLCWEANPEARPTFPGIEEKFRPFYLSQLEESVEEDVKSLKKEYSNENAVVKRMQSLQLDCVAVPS", "assay": "Protein thermal shift assay", "assay_type": "binding", "design": "RIPK1(1-330) protein (final concentration 2 μM) was expressed and purified in insect cells; made in house; host or cells: insect cells", "conditions": "FIG. 3", "description": "The interaction between RIPK1 protein and compound was analyzed by studying the thermal stability of the protein. Small molecule ligands can stabilize proteins by binding to proteins, increasing the Tm value of proteins. The interaction between the compound and the protein can be indirectly judged by testing the effect of the compound on the thermal stability of the protein. RIPK1 protein contains kinase domain (1-312), intermediate domain (312-582) and death domain (582-669), and RIPK1 (1-330) protein purified in vitro contains all kinase domains.\nThe adopted biological test protocol was to test the effect of compound QY-1-98 on the thermal stability of RIPK1 (1-330) protein using protein thermal shift assay, using the known RIPK1 inhibitor Nec-1s as a control.\nRIPK1(1-330) protein (final concentration 2 μM) was expressed and purified in insect cells, mixed with the corresponding concentration of compound and SYRO Orange Protein gel stain dye (final concentration 5×). 10 μL of final volume was added to 384-well plate, and at least 3 duplicate wells were set in each group. After the samples were placed for 2 hours at room temperature, the 7500 Fast Real-Time PCR System was applied to test the thermal stability of the protein by […]. The temperature was set at 25° C.-95° C., 0.015° C./s. The datas were analyzed using protein thermal shift software."}}}
{"compound": "Cc1noc([C@@H]2CCCN2C(=O)C(C)(C)Oc2ccc(Cl)cc2)n1", "note": "[QY-1-98]", "values": [{"measurement": "inhibition of programmed cell necrosis after mutation of serine 161 of RIPK1 to alanine", "setting": "RIPK1 (S161A)", "result": "can still inhibit the programmed cells necrosis"}, {"measurement": "thermal stability of RIPK1 (1-330) protein", "setting": "RIPK1(1-330) protein", "result": "can significantly improve the thermal stability"}]}
